Patent US10610515B2, “Composition including indoprofen and use thereof” (Samsung Electronics Co., Ltd., priority 2015, dated 2020)

Experiments:
mouse = details: cited from earlier work
C2C12 myoblasts [1] = test: Immunoblot of PGC-1α, differentiation markers and mitochondrial protein in indoprofen-treated myoblasts; type: cell-based
Method: The effect of indoprofen on the differentiation of C2C12 myoblasts into muscle cells was analyzed. Dulbecco's Modified Eagle Medium (DMEM) supplemented with 15% fetal bovine serum was used as a growth medium for the culture of C2C12 myoblasts, and DMEM supplemented with 2% horse serum was used as a differentiation medium for differentiation into muscle cells. To induce differentiation of C2C12 myoblasts into muscle cells, 10 μM or 100 μM indoprofen dissolved in DMSO was added to the experimental groups, and DMSO alone was added to the control group. The cells were cultured for 48 hours to induce differentiation, and then a RIPA buffer (50 mM Tris-HCl, pH 7.5, 150 mM NaCl, 1% Triton X100, 0.1% SDS, 2 mM EDTA, 0.5% sodium deoxycholate, Proteinase Inhibitor) was added to the harvested cells to allow lysis for 30 minutes, followed by centrifugation at 13,000 rpm for 30 minutes. The amount of protein in the cell lysis sample was quantified and an equal amount of protein was subjected to 7% or 15% SDS-PAGE. The protein was transferred onto a PVDF membrane, and then incubated in a blocking buffer containing 5% skim milk for 1 hour. Primary antibodies specific to individual proteins, diluted in 5% BSA, are reacted with the membrane at 4° C. for 12 hours, and then the membrane was washed with a wash buffer for 5 minutes three times. Secondary antibodies were diluted with the blocking buffer and allowed to react with the membrane at room temperature for 1 hour. Thereafter, the membrane was washed with the wash buffer for 5 minutes three times, and then exposed to X-ray film using an ECL reagent (Roche) to confirm protein expression levels.

C57BL/6 female mice [2] = test: SDH and NADPH staining of extensor digitorum longus muscle of indoprofen-administered mice; type: in vivo, mouse; details: oral, 2 weeks, 10 week-old mice
Method: 10 week-old C57BL/6 female mice were bred at a temperature of 22±2° C., humidity of 55±5%, and a light-dark cycle of 12:12 hours. Mice were orally administered 1.5 mg/kg of indoprofen in 100 μl of PBS twice a day. A control group was orally administered with 100 μl of PBS twice a day. The mice were allowed free access to drinking water. Skeletal muscles were separated from the mice fed with indoprofen for 2 weeks, and subjected to immunoblot analysis. Staining of succinic dehydrogenase (SDH) and NADPH in the extensor digitorum longus muscle of a mouse administered with indoprofen for 2 weeks was performed. This staining method is a method of analyzing mitochondrial activity by measuring activities of SDH and NADPH which are enzymes involved in the electron transport chain of mitochondria. Staining degree of SDH and NADPH represents a content of oxidative muscle fiber. Immediately after separation, extensor digitorum longus muscles were fixed in OCT compound and frozen using liquid nitrogen, and then sectioned to a thickness of 7 μm with a cryo-cut freezing microtome. After SDH staining, the frozen tissue sections were reacted in 0.2 M phosphate buffer (pH 7.4) containing SDH at 37° C. for 10 minutes, washed with distilled water, and then sealed, followed by observation. […]

25-month-old female mice [3] = test: Weighing lower limb muscles of old mice administered with indoprofen; type: in vivo, mouse; details: old (25-month-old) mice, fed 4 weeks (FIG. 4C)
Text: To analyze changes in the muscle weight of old mouse by administration of indoprofen, lower limb muscles were separated from 25-month-old female mice (weighing 30 g) fed with indoprofen for 4 weeks.

C57BL/6 female mice [4] = test: Immunohistochemistry of 2a/2b type muscle fiber in extensor digitorum longus muscles of indoprofen-treated mice; type: in vivo, mouse; details: oral, 2 weeks
Method: 10 week-old C57BL/6 female mice were bred at a temperature of 22±2° C., humidity of 55±5%, and a light-dark cycle of 12:12 hours. Mice were orally administered 1.5 mg/kg of indoprofen in 100 μl of PBS twice a day. A control group was orally administered with 100 μl of PBS twice a day. The mice were allowed free access to drinking water. Skeletal muscles were separated from the mice fed with indoprofen for 2 weeks, and subjected to immunoblot analysis. To examine distribution of 2a type muscle fiber and 2b type muscle fiber, extensor digitorum longus muscles of mice administered with indoprofen for 2 weeks were subjected to immunohistochemistry. 2a type muscle fiber is an oxidative muscle fiber type, and there are two types: aerobic, that is, oxygen-dependent energy source and anaerobic, that is, oxygen-independent energy source. 2b type muscle fiber is a glycolytic muscle fiber type, and includes only anaerobic energy source. Frozen sections stored in a deep freezer of −80° C. were washed with 1×PBS twice, and fixed with 4% paraformaldehyde at room temperature for 15 minutes, and then washed with 1×PBS twice. The tissue and a permeabilization buffer (0.2% Triton-X/PBS) were reacted at room temperature for 30 minutes, and washed with 1×PBS twice. […] After sealing, a fluorescence microscope (Nikon, body: Ti-u, camera: DS-RI1, program: NIS-elements BR 3.1) was used for analysis.

C57BL/6 female mice [5] = test: Observation of lower limb muscles and heart of mice administered with indoprofen; type: in vivo, mouse; details: 1.5 mg/kg orally twice a day
Method: (§1) 10 week-old C57BL/6 female mice were bred at a temperature of 22±2° C., humidity of 55±5%, and a light-dark cycle of 12:12 hours. Mice were orally administered 1.5 mg/kg of indoprofen in 100 μl of PBS twice a day. A control group was orally administered with 100 μl of PBS twice a day. The mice were allowed free access to drinking water. Skeletal muscles were separated from the mice fed with indoprofen for 2 weeks, and subjected to immunoblot analysis. To evaluate functional consequence of PGC-1α increased by indoprofen treatment of skeletal muscle, lower limb muscles and organs of mice fed with indoprofen for 2 weeks were separated and analyzed.

C57BL/6 female mice [6] = test: Immunoblotting of tibialis anterior muscles of mice administered with indoprofen; type: in vivo, mouse; details: 1.5 mg/kg orally twice a day, 2 weeks, 10 week-old mice, vs PBS control (FIG. 3A)
Method: as §1, with “analysis.” for “analysis. To evaluate functional consequence of PGC-1α increased by indoprofen treatment of skeletal muscle, lower limb muscles and organs of mice fed with indoprofen for 2 weeks were separated and analyzed.”

C2C12 myoblasts [7] = test: Differentiation of indoprofen-treated myoblasts (MHC antibody fluorescence staining, DAPI); type: cell-based; details: 10 μM or 100 μM, differentiation 3 days, vs DMSO control (FIG. 2)
Method: C2C12 myoblasts were treated with 10 μM or 100 μM indoprofen and allowed to differentiate for 3 days. A control group was treated with DMSO alone. Fluorescence staining of C2C12 myotubes was performed using MHC antibody. The number of nuclei within one myotube was counted by DAPI staining. C2C12 cells were differentiated in DMED supplemented with 2% horse serum for 72 hours. The cells were washed with 1×PBS, and then fixed in 4% paraformaldehyde at room temperature for 15 minutes, followed by washing with 1×PBS three times. The cells were reacted with a permeabilizing buffer supplemented with 0.2% Triton-X for 10 minutes, and then washed with 1×PBS three times, followed by blocking using 5% fetal bovine serum at room temperature for 1 hour. A primary antibody, anti-MHC, was diluted with 5% goat serum at a ratio of 1:500 and allowed to react at 4° C. for 12 hours, followed by washing with 1×PBS three times. A secondary antibody, anti-mouse IgG-HRP 594 (Invitrogen) was diluted with 5% goat serum at a ratio of 1:500 and allowed to react at 4° C. for 1 hour, followed by washing with 1×PBS three times. DAPI is diluted with 1×PBS at a ratio of 1:10000 and allowed to react for 1 minute, followed by washing with 1×PBS and fluorescence microscopy.

25-month-old female mice [8] = test: SDH and NADPH staining of extensor digitorum longus muscle of indoprofen-administered old mice; type: in vivo, mouse; details: old (25-month-old) mice, oral in corn oil, 4 weeks
Method: Immediately after separation, extensor digitorum longus muscles were fixed in OCT compound and frozen using liquid nitrogen, and then sectioned to a thickness of 7 μm with a cryo-cut freezing microtome. After SDH staining, the frozen tissue sections were reacted in 0.2 M phosphate buffer (pH 7.4) containing SDH at 37° C. for 10 minutes, washed with distilled water, and then sealed, followed by observation. For NADPH staining, the frozen tissue sections were reacted in 3.5 mM phosphate buffer (pH 7.4) containing 0.9 mM NADH, and 1.5 mM nitro blue tetrazolium at 37° C. for 30 minutes, washed with distilled water, and then sealed, followed by observation.
25-month-old female mice (weighing 30 g) were orally administered with indoprofen mixed with corn oil as an experimental group or corn oil only as a control group for 4 weeks. […] Staining of SDH and NADPH in extensor digitorum longus muscles of the old mice orally administered with indoprofen for 4 weeks was performed in the same manner as in 4 of Example 3.

human PGC-1α promoter = test: PGC-1α promoter luciferase reporter screening in C2C12-PGC-1α reporter cell line; type: cell-based, mouse; details: 10 μM, 48 hours, C2C12-PGC-1α reporter cells, vs DMSO control
Method: To screen a compound activating PGC-1α gene expression in C2C12 myoblast cells, a PGC-1α reporter-expressing C2C12 cell line (hereinafter, referred to as ‘PGC-1α reporter cell line’ or ‘C2C12-PGC-1α cell line) was established. A vector expressing luciferase and dscGFP (destabilized Green Fluorescent Protein) under a human PGC-1α promoter having a length of 1 kb was prepared, and this vector was inserted into lentivirus to transfect C2C12 cells. To select a cell line that genetically stably expressed the vector, fluorescence emitted from green fluorescent protein (GFP) included in the vector was monitored. 5 μg/ml of puromycin, a selection marker for the vector, was added to a cell culture medium, and a cell line expressing PGC-1α reporter was selected. […] The expression level is measured by luminescence after addition of a luciferase substrate, thereby determining activation or inhibition of PGC-1α transcription by the compound.
The C2C12-PGC-1α reporter cell line prepared in Section 1 was used to screen a PGC-1α expression regulator from 2320 compounds provided by Korea Chemical Bank. […] 48 hours later, luminescence by luciferase was measured. […] Then, luminescence is measured. The measured values were normalized to each well and plate, and a value measured in a well treated with a solvent of the compound, DMSO, is used as a control group to express the value as a relative ratio.

[9] = 10 μM or 100 μM, 48 hours differentiation, Western blot, vs DMSO control (FIG. 1)

CC(=O)Oc1ccccc1C(=O)O [aspirin]
ID50 (mouse; for reference): 250 mg/kg

CC(C(=O)O)c1ccc(N2Cc3ccccc3C2=O)cc1 (stereo not shown) [indoprofen, 2-[4-(1-oxo-1,3-dihydro-2H-isoindol-2-yl)phenyl]propionic acid]
expression of PGC-1α (C2C12 myoblasts [1]; [9]): greatly increased | expression of mitochondrial protein cytochrome C (C2C12 myoblasts [1]; [9]): greatly increased | expression of muscle differentiation marker MHC (C2C12 myoblasts [1]; [9]): greatly increased | expression of muscle differentiation marker myogenin (C2C12 myoblasts [1]; [9]): greatly increased | expression of myoglobin (C2C12 myoblasts [1]; [9]): greatly increased | concentration of optimal activity (C2C12 myoblasts [1]; C2C12 myoblasts, protein expression (FIG. 1)): 100 µM | percentage of muscle fiber having increased SDH activity in extensor digitorum longus muscle (C57BL/6 female mice [2]; vs control group (FIG. 3E)): increased | percentage of muscle fiber having increased NADPH activity in extensor digitorum longus muscle (C57BL/6 female mice [2]; vs control group (FIG. 3F)): increased | weight of lower limb muscle (Sol, Gas, EDL, TA) (25-month-old female mice [3]): increases | number of oxidative 2a type muscle fiber in extensor digitorum longus muscle (C57BL/6 female mice [4]; anti-Myh2a antibody, vs non-treated control (FIG. 3C)): increased | number of glycolytic 2b type muscle fiber in extensor digitorum longus muscle (C57BL/6 female mice [4]; anti-Myh2b antibody, vs non-treated control (FIG. 3D)): decreased | heart size (C57BL/6 female mice [5]; 2 weeks (FIG. 3B (C))): no change | appearance of quadriceps muscle and gastrocnemius muscle (white vs red muscle) (C57BL/6 female mice [5]; 2 weeks, vs control group (FIG. 3B)): converted to red muscles | lethal dose (LD)-50 for 50% mouse mortality (mouse; mouse): 700 mg per mouse body weight (kg) | expression of PGC-1α in tibialis anterior muscle (C57BL/6 female mice [6]): increased | expression of myoglobin in tibialis anterior muscle (C57BL/6 female mice [6]): increased | myotube formation and fusion of myoblasts (C2C12 myoblasts [7]): increased | percentage of the nuclei labeled with MHC antibody (C2C12 myoblasts [7]): significantly increased | percentage of muscle fiber having increased SDH activity in extensor digitorum longus muscle (25-month-old female mice [8]; vs corn oil control (FIG. 4A)): increased | percentage of muscle fiber having increased NADPH activity in extensor digitorum longus muscle (25-month-old female mice [8]; vs corn oil control (FIG. 4B)): increased | PGC-1α promoter activity (luciferase luminescence, relative ratio to DMSO control) (human PGC-1α promoter): greatly increased
